Our source for the Control values is ChEMBL document CHEMBL1128646, “The effect of Pyrrolo[3,4-c]carbazole derivatives on spinal cord ChAT activity” (Bioorg Med Chem Lett, 1995).

For test [1], the target named is T1, Choline O-acetyltransferase (Rattus norvegicus) (UniProt P32738).
T1 sequence (whole entry): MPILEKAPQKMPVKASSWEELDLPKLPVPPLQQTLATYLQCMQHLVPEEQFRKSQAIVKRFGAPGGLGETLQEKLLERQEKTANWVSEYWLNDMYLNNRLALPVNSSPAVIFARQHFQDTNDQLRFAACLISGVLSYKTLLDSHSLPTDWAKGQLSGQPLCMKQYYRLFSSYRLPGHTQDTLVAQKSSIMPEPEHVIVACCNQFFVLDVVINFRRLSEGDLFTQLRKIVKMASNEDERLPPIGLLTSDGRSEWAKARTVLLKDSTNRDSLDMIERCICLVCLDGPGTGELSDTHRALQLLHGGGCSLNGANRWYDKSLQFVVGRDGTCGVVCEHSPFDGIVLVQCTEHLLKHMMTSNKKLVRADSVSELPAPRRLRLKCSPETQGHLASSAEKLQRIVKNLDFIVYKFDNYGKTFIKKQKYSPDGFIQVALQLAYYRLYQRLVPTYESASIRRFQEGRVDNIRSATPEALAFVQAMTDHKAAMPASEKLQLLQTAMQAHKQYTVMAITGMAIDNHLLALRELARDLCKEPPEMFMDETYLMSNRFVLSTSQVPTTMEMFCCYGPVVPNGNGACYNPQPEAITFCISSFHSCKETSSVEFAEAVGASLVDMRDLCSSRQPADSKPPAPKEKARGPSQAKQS
In words: Compound was tested in vitro for choline acetyltransferase (ChAT) activity (maximal ChAT stimulation) in embryonic rat spinal cord cultures at a concentration of 0.300 uM. Format: tissue-based.

Test [2] addresses T1, Choline O-acetyltransferase (Rattus norvegicus). In words: Compound was tested in vitro for choline acetyltransferase (ChAT) activity (maximal ChAT stimulation) in embryonic rat spinal cord cultures at a concentration of 1 uM. In kind it is tissue-based.
For test [3] the target is unchanged. In words: Compound was tested in vitro for choline acetyltransferase (ChAT) activity (maximal ChAT stimulation) in embryonic rat spinal cord cultures at a concentration of 10 uM; inactive.
Test [4] has the same target. The test is described as follows: Compound was tested in vitro for choline acetyltransferase (ChAT) activity (maximal ChAT stimulation) in embryonic rat spinal cord cultures at a concentration of 10 uM. Format: tissue-based.
Test [5] has the same target. The test is described as follows: Compound was tested in vitro for choline acetyltransferase (ChAT) activity (maximal ChAT stimulation) in embryonic rat spinal cord cultures at a concentration of 10 uM; Inactive. Format: tissue-based.

The structures appear in SMILES notation. Active and inactive are the calls of the source. No cut-off for these calls is given here.

With `COC(=O)[C@]1(O)C[C@@H]2O[C@@]1(C)n1c3ccccc3c3c4c(c5c6ccccc6n2c5c31)C(=O)NC4`, the Control in test [1] came out at 186%.

The compound `O=C1NCc2c1c1c3ccccc3[nH]c1c1[nH]c3ccccc3c21` showed a Control in test [2] of 162%.

For the compound `O=C1NCc2c1c(-c1ccccc1)cc1[nH]c3ccccc3c21`, in test [3], the Control entry is “inactive”.

On to `Cn1c2ccccc2c2c3c(c(-c4ccccc4)cc21)CNC3=O`, for which the Control in test [4] is 159%.

For `CN1Cc2c(-c3ccccc3)cc3c(c2C1=O)c1ccccc1n3C`, the Control result in test [5] is “inactive”.

Take `O=C1NCc2c(-c3ccccc3)cc3[nH]c4ccc(Br)cc4c3c21`: in test [2], the Control turned out to be 146%.

Compound `O=C1NCc2c(-c3ccccc3)cc3[nH]c4ccccc4c3c21` registered a Control in test [4] of 167%.

Turning to `O=C1NCc2c(-c3ccccc3)cc3[nH]c4ccc(/C=C/c5ccccc5)cc4c3c21`, the Control entry in test [3] was “inactive”.

Turning to `CC(C)(C)OC(=O)/C=C/c1ccc2[nH]c3cc(-c4ccccc4)c4c(c3c2c1)C(=O)NC4`, the Control entry in test [3] is “inactive”.
